Converted amounts (≈) assume the structure as drawn. Read-outs that look alike come from different tables or passages of the source.
Columns and labels:
S. typhimurium GC 2172 = experiment: MIC, broth microdilution; settings: Salmonella enterica, TYPHIMURIUM
E. coli GC 2236 = experiment: MIC, broth microdilution; settings: Escherichia coli
E. faecium GC 4556 = experiment: MIC, broth microdilution; settings: Enterococcus faecium
S. pneumoniae* GC 4465 = experiment: MIC, broth microdilution; settings: Streptococcus pneumoniae
E. coli GC 2235 = experiment: MIC, broth microdilution; settings: Escherichia coli
S. pneumoniae+ GC 4465 = experiment: MIC, broth microdilution; settings: Streptococcus pneumoniae
S. agalactiae GC 4564 = experiment: MIC, broth microdilution; settings: Streptococcus agalactiae
E. coli GC 2234 = experiment: MIC, broth microdilution; settings: Escherichia coli
Staph. aureus Smith = experiment: In vivo activity (oral, iv; ED50) against Staph. aureus Smith in mice
E. coli GC 2232 = experiment: MIC, broth microdilution; settings: Escherichia coli
Staph. = experiment: Range of MIC for Staph. strains, including MRSA; settings: Staphylococcus aureus
E. coli = experiment: Range of MIC for E. coli strains; settings: Escherichia coli
S. aureus GC 2216 = experiment: MIC, broth microdilution; settings: Staphylococcus aureus
S. aureus GC 4536 = experiment: MIC, broth microdilution; settings: Staphylococcus aureus
S. pyogenes GC 4563 = experiment: MIC, broth microdilution; settings: Streptococcus pyogenes
E. coli GC 4559 = experiment: MIC, broth microdilution; settings: Escherichia coli
E. coli GC 2231 = experiment: MIC, broth microdilution; settings: Escherichia coli
E. faecalis GC 2242 = experiment: MIC, broth microdilution; settings: Enterococcus faecalis
E. faecalis GC 4555 = experiment: MIC, broth microdilution; settings: Enterococcus faecalis
S. aureus GC 6466 = experiment: MIC, broth microdilution; settings: Staphylococcus aureus
[1] = read-out: MINIMAL INHIBITORY CONCENTRATION MIC, pre-incubated in Human Serum
[2] = read-out: MINIMAL INHIBITORY CONCENTRATION MIC, pre-incubated in Mouse Serum
[3] = read-out: MINIMAL INHIBITORY CONCENTRATION MIC, pre-incubated in Water

MIC (S. typhimurium GC 2172; [1]): 32 µg/mL (≈ 42.3 µM) | MIC (S. typhimurium GC 2172; [2]): 2 µg/mL (≈ 2.65 µM) | MIC (S. typhimurium GC 2172; [3]): > 64 µg/mL | MIC (E. coli GC 2236; GC2236, read-out: MINIMAL INHIBITORY CONCENTRATION MIC, pre-incubated in Human Serum): 4 µg/mL (≈ 5.29 µM) | MIC (E. coli GC 2236; GC2236, read-out: MINIMAL INHIBITORY CONCENTRATION MIC, pre-incubated in Mouse Serum): 0.5 µg/mL (≈ 0.662 µM) | MIC (E. coli GC 2236; GC2236, read-out: MINIMAL INHIBITORY CONCENTRATION MIC, pre-incubated in Water): 64 µg/mL (≈ 84.7 µM) | MIC (E. faecium GC 4556; GC4556, read-out: MINIMAL INHIBITORY CONCENTRATION MIC, pre-incubated in Human Serum): 1 µg/mL (≈ 1.32 µM) | MIC (E. faecium GC 4556; GC4556, read-out: MINIMAL INHIBITORY CONCENTRATION MIC, pre-incubated in Mouse Serum): 0.5 µg/mL (≈ 0.662 µM) | MIC (E. faecium GC 4556; GC4556, read-out: MINIMAL INHIBITORY CONCENTRATION MIC, pre-incubated in Water): 1 µg/mL (≈ 1.32 µM) | MIC (S. pneumoniae* GC 4465; [1]): 0.12 µg/mL (≈ 0.159 µM) | MIC (S. pneumoniae* GC 4465; [2]): 0.12 µg/mL (≈ 0.159 µM) | MIC (S. pneumoniae* GC 4465; [3]): 0.12 µg/mL (≈ 0.159 µM) | MIC (E. coli GC 2235; GC2235, read-out: MINIMAL INHIBITORY CONCENTRATION MIC, pre-incubated in Human Serum): 4 µg/mL (≈ 5.29 µM) | MIC (E. coli GC 2235; GC2235, read-out: MINIMAL INHIBITORY CONCENTRATION MIC, pre-incubated in Mouse Serum): 0.5 µg/mL (≈ 0.662 µM) | MIC (E. coli GC 2235; GC2235, read-out: MINIMAL INHIBITORY CONCENTRATION MIC, pre-incubated in Water): 64 µg/mL (≈ 84.7 µM) | MIC (S. pneumoniae+ GC 4465; [1]): 1 µg/mL (≈ 1.32 µM) | MIC (S. pneumoniae+ GC 4465; [2]): 1 µg/mL (≈ 1.32 µM) | MIC (S. pneumoniae+ GC 4465; [3]): 1 µg/mL (≈ 1.32 µM) | MIC (S. agalactiae GC 4564; GC4564, read-out: MINIMAL INHIBITORY CONCENTRATION MIC, pre-incubated in Human Serum): 0.25 µg/mL (≈ 0.331 µM) | MIC (S. agalactiae GC 4564; GC4564, read-out: MINIMAL INHIBITORY CONCENTRATION MIC, pre-incubated in Mouse Serum): 0.25 µg/mL (≈ 0.331 µM) | MIC (S. agalactiae GC 4564; GC4564, read-out: MINIMAL INHIBITORY CONCENTRATION MIC, pre-incubated in Water): 0.25 µg/mL (≈ 0.331 µM) | MIC (E. coli GC 2234; GC2234, read-out: MINIMAL INHIBITORY CONCENTRATION MIC, pre-incubated in Human Serum): 4 µg/mL (≈ 5.29 µM) | MIC (E. coli GC 2234; GC2234, read-out: MINIMAL INHIBITORY CONCENTRATION MIC, pre-incubated in Mouse Serum): 0.5 µg/mL (≈ 0.662 µM) | MIC (E. coli GC 2234; GC2234, read-out: MINIMAL INHIBITORY CONCENTRATION MIC, pre-incubated in Water): 64 µg/mL (≈ 84.7 µM) | MIC (E. coli GC 2232; GC2232, read-out: MINIMAL INHIBITORY CONCENTRATION MIC, pre-incubated in Human Serum): 4 µg/mL (≈ 5.29 µM) | MIC (E. coli GC 2232; GC2232, read-out: MINIMAL INHIBITORY CONCENTRATION MIC, pre-incubated in Mouse Serum): 0.5 µg/mL (≈ 0.662 µM) | MIC (E. coli GC 2232; GC2232, read-out: MINIMAL INHIBITORY CONCENTRATION MIC, pre-incubated in Water): 64 µg/mL (≈ 84.7 µM) | MIC (Staph.; MRSA, read-out: Range of MIC, Staph (Mouse Serum)): 0.25 to 1 µg/mL (≈ 0.331 to 1.32 µM) | MIC (Staph.; MRSA, read-out: Range of MIC, Staph (Water)): 0.25 to 2 µg/mL (≈ 0.331 to 2.65 µM) | MIC (Staph.; read-out: Minimum inhibitory concentration (MIC), Staph (Human Serum)): 0.25 to 1 µg/mL (≈ 0.331 to 1.32 µM) | MIC (Staph.; read-out: Minimum inhibitory concentration (MIC), Staph (Water)): 0.25 to 2 µg/mL (≈ 0.331 to 2.65 µM) | MIC (E. coli; 20 h, read-out: Range of MIC, E. coli (Mouse Serum)): 0.5 to 2 µg/mL (≈ 0.662 to 2.65 µM) | MIC (E. coli; read-out: Minimum inhibitory concentration (MIC), E. coli (Human Serum)): 4 to 16 µg/mL (≈ 5.29 to 21.2 µM) | MIC (S. aureus GC 2216; GC2216, read-out: MINIMAL INHIBITORY CONCENTRATION MIC, pre-incubated in Human Serum): 0.5 µg/mL (≈ 0.662 µM) | MIC (S. aureus GC 2216; GC2216, read-out: MINIMAL INHIBITORY CONCENTRATION MIC, pre-incubated in Mouse Serum): 0.5 µg/mL (≈ 0.662 µM) | MIC (S. aureus GC 2216; GC2216, read-out: MINIMAL INHIBITORY CONCENTRATION MIC, pre-incubated in Water): 1 µg/mL (≈ 1.32 µM) | MIC (S. aureus GC 4536; GC4536, read-out: MINIMAL INHIBITORY CONCENTRATION MIC, pre-incubated in Human Serum): 0.5 µg/mL (≈ 0.662 µM) | MIC (S. aureus GC 4536; GC4536, read-out: MINIMAL INHIBITORY CONCENTRATION MIC, pre-incubated in Mouse Serum): 0.5 µg/mL (≈ 0.662 µM) | MIC (S. aureus GC 4536; GC4536, read-out: MINIMAL INHIBITORY CONCENTRATION MIC, pre-incubated in Water): 0.5 µg/mL (≈ 0.662 µM) | MIC (S. pyogenes GC 4563; GC4563, read-out: MINIMAL INHIBITORY CONCENTRATION MIC, pre-incubated in Human Serum): 0.25 µg/mL (≈ 0.331 µM) | MIC (S. pyogenes GC 4563; GC4563, read-out: MINIMAL INHIBITORY CONCENTRATION MIC, pre-incubated in Mouse Serum): 0.12 µg/mL (≈ 0.159 µM) | MIC (S. pyogenes GC 4563; GC4563, read-out: MINIMAL INHIBITORY CONCENTRATION MIC, pre-incubated in Water): 0.25 µg/mL (≈ 0.331 µM) | MIC (E. coli GC 4559; GC4559, read-out: MINIMAL INHIBITORY CONCENTRATION MIC, pre-incubated in Human Serum): 8 µg/mL (≈ 10.6 µM) | MIC (E. coli GC 4559; GC4559, read-out: MINIMAL INHIBITORY CONCENTRATION MIC, pre-incubated in Mouse Serum): 1 µg/mL (≈ 1.32 µM) | MIC (E. coli GC 4559; GC4559, read-out: MINIMAL INHIBITORY CONCENTRATION MIC, pre-incubated in Water): > 64 µg/mL | MIC (E. coli GC 2231; GC2231, read-out: MINIMAL INHIBITORY CONCENTRATION MIC, pre-incubated in Human Serum): 4 µg/mL (≈ 5.29 µM) | MIC (E. coli GC 2231; GC2231, read-out: MINIMAL INHIBITORY CONCENTRATION MIC, pre-incubated in Mouse Serum): 0.5 µg/mL (≈ 0.662 µM) | MIC (E. coli GC 2231; GC2231, read-out: MINIMAL INHIBITORY CONCENTRATION MIC, pre-incubated in Water): 64 µg/mL (≈ 84.7 µM) | MIC (E. faecalis GC 2242; GC2242, read-out: MINIMAL INHIBITORY CONCENTRATION MIC, pre-incubated in Human Serum): 1 µg/mL (≈ 1.32 µM) | MIC (E. faecalis GC 2242; GC2242, read-out: MINIMAL INHIBITORY CONCENTRATION MIC, pre-incubated in Mouse Serum): 0.5 µg/mL (≈ 0.662 µM) | MIC (E. faecalis GC 2242; GC2242, read-out: MINIMAL INHIBITORY CONCENTRATION MIC, pre-incubated in Water): 1 µg/mL (≈ 1.32 µM) | MIC (E. faecalis GC 4555; GC4555, read-out: MINIMAL INHIBITORY CONCENTRATION MIC, pre-incubated in Human Serum): 0.5 µg/mL (≈ 0.662 µM) | MIC (E. faecalis GC 4555; GC4555, read-out: MINIMAL INHIBITORY CONCENTRATION MIC, pre-incubated in Mouse Serum): 0.5 µg/mL (≈ 0.662 µM) | MIC (E. faecalis GC 4555; GC4555, read-out: MINIMAL INHIBITORY CONCENTRATION MIC, pre-incubated in Water): 2 µg/mL (≈ 2.65 µM) | MIC (S. aureus GC 6466; GC6466, read-out: MINIMAL INHIBITORY CONCENTRATION MIC, pre-incubated in Human Serum): 0.25 µg/mL (≈ 0.331 µM) | MIC (S. aureus GC 6466; GC6466, read-out: MINIMAL INHIBITORY CONCENTRATION MIC, pre-incubated in Mouse Serum): 0.25 µg/mL (≈ 0.331 µM) | MIC (S. aureus GC 6466; GC6466, read-out: MINIMAL INHIBITORY CONCENTRATION MIC, pre-incubated in Water): 0.25 µg/mL (≈ 0.331 µM)
Compound: CN(C)c1cc(NC(=O)CN(C(=O)OCOC(=O)C2CCCC2)C(C)(C)C)c(O)c2c1C[C@H]1C[C@H]3[C@H](N(C)C)C(O)=C(C(N)=O)C(=O)[C@@]3(O)C(O)=C1C2=O [Example 46, ({[(2-{[(5aR,6aS,7S,10aS)-9-(aminocarbonyl)-4,7-bis(dimethylamino)-1,8,10a,11-tetrahydroxy-10,12-dioxo-5,5a,6,6a,7,10,10a,12-octahydrotetracen-2-yl]amino}-2-oxoethyl)(tert-butyl)amino]carbonyl}oxy)methyl cyclopentanecarboxylate]
ED50 (Staph. aureus Smith; Staphylococcus aureus, in Mus musculus, po, read-out: ED50 Staph Smith SOD): 8.4 mg/kg | ED50 (Staph. aureus Smith; iv, read-out: ED50 Staph Smith SIV): 0.83 mg/kg

From patent publication US20070049564A1 (Wyeth, priority 2005, published 2007)
